From PMC4138991, “Building a Better Dynasore: The Dyngo Compounds Potently Inhibit Dynamin and Endocytosis” (Traffic (Copenhagen, Denmark), 2013)
“Also recorded” adds a separate entry of the source.

Legend:
[1] = target: dynamin I binding to SH3 domains of grb2, amphiphysin I, endophilin I (Homo sapiens, UniProt Q05193); test: Pull-down of dynamin I with SH3 domains; conditions: 10, 40 and 100 µM 4a
Procedure: Recombinant human dynamin I was expressed in insect cells (SF21). Cells were lysed and sonicated in 20 mM HEPES buffer with 250 mM NaCl. The lysates were diluted in 20 mM HEPES buffer alone to obtain a final 50 mM NaCl concentration. This diluted lysate was used for pull-downs with 6 µg of GST-amphiphysin1 SH3, GST-endophilin SH3 or GST-grb2 SH3 (all recombinantly expressed in bacteria) immobilised on glutathione sepharose beads. Incubations were done in the presence or absence of 10, 40 and 100 µM 4a for 1 hr at 10°C. The GSH beads were then washed three times with ice cold PBS and the bound proteins were separated on 12% SDS-PAGE gels and visualised using Coomassie Blue.

cultured CGNs = test: SV turnover by FM1-43 loading/unloading in cultured cerebellar granule neurons; type: cell-based, rat; conditions: 30 μM, 15 min preincubation
Procedure: Granule neuron cultures were prepared from the cerebella of 7‐day‐old rat pups as previously described 57. In all experiments, neurons were used between 8 and 10 days in vitro.
Neuronal cultures were removed from culture medium and left for 10 min in incubation medium [170 mM NaCl, 3.5 mM KCl, 0.4 mM KH2PO4, 20 mM TES (N‐tris[hydroxy‐methyl]‐methyl‐2‐aminoethane‐sulfonic acid), 5 mM NaHCO3, 5 mM glucose, 1.2 mM Na2SO4, 1.2 mM MgCl2 and 1.3 mM CaCl2, pH 7.4]. Cultures were then mounted in a Warner imaging chamber (RC‐21BRFS). Invaginating membrane was loaded with FM1‐43 (10 μM) by evoking SV turnover with a brief train of action potentials (80 Hz for 10 seconds, 100 mA and 1‐millisecond pulse width, delivered using platinum wires embedded in the imaging chamber). Dye kept present for 1 min after stimulation to ensure all retrieving membrane was labeled (S1 loading). After a 10‐min rest period, accumulated dye was unloaded from nerve terminals using two consecutive maximal stimuli with incubation media supplemented with 50 mM KCl (50 mM NaCl removed to maintain osmolarity). The fluorescence decrease due to dye loss provides an estimate of the total number of synaptic vesicles turned over during stimulation (S1). After a 20‐min rest period the S1 protocol was repeated (S2 loading and unloading). […]

Calyx of Held = system: Calyx of Held; parameters: method as in PMID 18066059; conditions: 100 μM, 5-min preincubation; cited from earlier work
[2] = target: grb2-stimulated dynamin I (from brain) (Ovis aries, UniProt A0ACI6PDC7); test: grb2-stimulated (ring) dynamin I GTPase assay; type: biochemical, sheep
grb2-stimulated dynamin I (from brain), sequence (A0ACI6PDC7 entry or part of it): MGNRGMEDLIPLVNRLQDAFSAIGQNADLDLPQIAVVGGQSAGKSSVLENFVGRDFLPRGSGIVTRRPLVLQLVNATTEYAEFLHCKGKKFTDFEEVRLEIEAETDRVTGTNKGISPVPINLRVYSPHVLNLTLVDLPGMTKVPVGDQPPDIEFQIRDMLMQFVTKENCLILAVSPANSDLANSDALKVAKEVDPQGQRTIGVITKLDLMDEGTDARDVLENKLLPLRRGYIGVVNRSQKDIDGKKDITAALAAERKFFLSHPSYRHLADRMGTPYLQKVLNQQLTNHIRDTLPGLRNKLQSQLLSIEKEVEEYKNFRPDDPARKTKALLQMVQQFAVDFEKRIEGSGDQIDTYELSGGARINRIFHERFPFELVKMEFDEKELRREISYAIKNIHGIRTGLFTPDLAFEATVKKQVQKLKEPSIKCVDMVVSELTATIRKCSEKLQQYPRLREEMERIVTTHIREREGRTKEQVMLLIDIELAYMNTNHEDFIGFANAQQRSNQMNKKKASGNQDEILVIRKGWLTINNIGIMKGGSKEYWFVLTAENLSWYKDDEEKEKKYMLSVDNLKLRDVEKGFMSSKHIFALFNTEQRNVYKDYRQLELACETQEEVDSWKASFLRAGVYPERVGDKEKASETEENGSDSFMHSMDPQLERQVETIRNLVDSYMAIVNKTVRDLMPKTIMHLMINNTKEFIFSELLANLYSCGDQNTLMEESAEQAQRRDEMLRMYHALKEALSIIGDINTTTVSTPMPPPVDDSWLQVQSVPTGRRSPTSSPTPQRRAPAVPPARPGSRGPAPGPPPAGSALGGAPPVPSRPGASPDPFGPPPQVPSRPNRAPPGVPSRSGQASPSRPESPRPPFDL
Procedure: The Malachite Green colorimetric GTPase assay was as described 10. Dynamin I activity was measured in its SAI activity state or was stimulated by three different methods. As each stimulus activates dynamin to different extents, each assay required different dynamin concentrations. First, maximal dynamin activity was stimulated by sonicated PS liposomes 10. Purified dynamin I (10–20 nM, diluted in: 6 mM Tris–HCl, 20 mM NaCl and 0.01% Tween 80, pH 7.4) was incubated in 96‐well plates in GTPase buffer (5 mM Tris–HCl, 10 mM NaCl, 2 mM Mg^2+, 0.05% Tween 80, pH 7.4, 1 µg/mL leupeptin and 0.1 mM PMSF) and GTP 0.3 mM in the presence of test compound for 30 min at 37°C in a final assay volume of 150 μL. Reactions were terminated with 10 μL of 0.5 M ethylenediaminetetraacetic acid (EDTA) pH 7.4 and Malachite Green solution (40 μL: 2% w/v ammonium molybdate tetrahydrate, 0.15% w/v malachite green and 4 M HCl) was added for 5 min. Second, dynamin (20 nM) was stimulated by 10 µg/mL of taxol‐stabilized preformed bovine brain microtubules (Cytoskeleton, Inc) using the same protocol. […] Finally, dynamin (500 nM) SAI activity was measured using high concentrations of dynamin, which promote its cooperative self‐assembly into rings (but not helices) 26. […] After the Vmax and Km values were determined, the data were transformed using the Lineweaver–Burke equation, 1/v = 1/Vmax + (Km/Vmax)(1/[S]).

dynamin I binding to SH3 domains of grb2, amphiphysin I, endophilin I, sequence (Q05193 whole entry, the tested form may be a part): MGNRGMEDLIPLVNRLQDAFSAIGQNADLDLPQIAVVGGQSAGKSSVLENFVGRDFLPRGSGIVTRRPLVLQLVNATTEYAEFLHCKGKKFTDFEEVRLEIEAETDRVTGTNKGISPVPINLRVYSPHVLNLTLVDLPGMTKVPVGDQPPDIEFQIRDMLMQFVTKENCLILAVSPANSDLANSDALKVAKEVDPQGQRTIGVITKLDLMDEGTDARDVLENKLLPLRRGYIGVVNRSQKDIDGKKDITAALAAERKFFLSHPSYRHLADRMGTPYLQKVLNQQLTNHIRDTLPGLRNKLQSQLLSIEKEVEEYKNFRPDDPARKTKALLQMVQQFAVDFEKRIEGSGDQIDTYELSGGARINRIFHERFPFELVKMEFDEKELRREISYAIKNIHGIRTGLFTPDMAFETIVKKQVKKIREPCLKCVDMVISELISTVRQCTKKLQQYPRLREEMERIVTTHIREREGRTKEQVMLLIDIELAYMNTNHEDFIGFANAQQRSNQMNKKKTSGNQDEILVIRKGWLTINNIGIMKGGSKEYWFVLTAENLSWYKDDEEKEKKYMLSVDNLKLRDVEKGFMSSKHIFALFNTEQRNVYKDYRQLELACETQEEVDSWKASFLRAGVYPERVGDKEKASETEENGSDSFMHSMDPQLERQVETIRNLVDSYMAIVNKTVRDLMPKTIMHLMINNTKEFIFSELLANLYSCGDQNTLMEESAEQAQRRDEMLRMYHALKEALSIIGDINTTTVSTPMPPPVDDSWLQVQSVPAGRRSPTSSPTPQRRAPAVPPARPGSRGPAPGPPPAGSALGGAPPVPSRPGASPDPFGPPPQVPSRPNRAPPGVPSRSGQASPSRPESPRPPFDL

Compound	effect on dynamin I binding to SH3 domains [1]	FM1-43 unloading (SV exocytosis) (cultured CGNs)	SVE at the Calyx of Held (Calyx of Held)	block of grb2-SH3 stimulated ring dynamin activity ([2]; presence of Tween-80)	fold reduced activity against grb2-stimulated ring dynamin versus PS-stimulated helical dynamin ([2]; without Tween-80)
O=C(N/N=C/c1cc(O)c(O)cc1O)c1cc2ccccc2cc1O [4a, (E)-3-Hydroxy-N'-(2,4,5-trihydroxybenzylidene) -2-naphthohydrazide]	did not disrupt the binding; also recorded: no effect	did not have a significant acute effect	–	–	–
O=C(N/N=C/c1ccc(O)c(O)c1)c1cc2ccccc2cc1O [Dynasore, (E)-N'-(3,4-Dihydroxybenzylidene)-3-hydroxy-2-naphthohydrazide]	–	–	inhibit SVE	did not block	threefold less potent
